Test system: thoracic aortic sections from Ang II-infused WT mice
Test: Angiotensin II infusion prevention model: aortic fibrosis and inflammation markers (picrosirius red, immunofluorescence)
Assay type: in vivo, mouse
Method: There are 8 different sets of in vivo experiments in this study: • A) Phenotypic characterisation of the heart and blood vessels in global IRAP knockout mice and their WT controls treated for 4 weeks with Angiotensin (Ang) II (800 ng/kg/min; s.c.) where mouse hearts and blood vessels were compared to tissue obtained from young WT and IRAP^−/− mice treated with saline. • B) Prevention of Ang II-induced changes in the cardiovascular system following IRAP inhibitor treatment. In the prevention model, WT mice were treated with Ang II (800 ng/kg/min; s.c.)±the IRAP inhibitor (HFI-419; 500 ng/kg/min for 28 days) or HFI-vehicle (1 DMSO:3 HBC). • C) Phenotypic characterisation of the aged heart, kidney and blood vessels in the global IRAP knockout mice where aged WT and IRAP^−/− mouse hearts, kidneys and blood vessels were compared to tissue obtained from young WT and IRAP^−/− mice. • D) Reversal of the age-induced changes in the cardiovascular system following IRAP inhibitor treatment. In the reversal model, aged WT mice were treated with either saline, IRAP inhibitor (HFI-419 at 500 ng/kg/min; compound 1 at 500 ng/kg/min; compound 2 at 50 ng/kg/min) or HFI-vehicle (1 DMSO: 3 HBC) for 4 weeks. • E) Prevention of ischemic-reperfusion injury in isolated hearts taken from aged global IRAP knockout mice and aged IRAP inhibitor (HFI-419 at 500 ng/kg/min; s.c.) treated WT mice compared to age-matched vehicle-treated (1 DMSO:3 HBC; s.c.) WT controls. • F) Phenotypic characterization of cardiac function using echocardiography in the aged global IRAP knockout mice compared to aged and young WT mice. • G) Phenotypic characterization of liver steatosis in IRAP knockout mice in a high fat diet (HFD) model. • H) Reversal of the salt-induced fibrosis in the liver following IRAP inhibitor treatment.
To measure collagen deposition, frozen sections of heart, kidney or aorta (all 5 μm thickness) were air dried for 10 minutes and were brought through 3 times xylene (2 minutes each), and 3 times absolute alcohol washes before being rinsed in tap H2O for 30 seconds. Staining with an optimal concentration of picrosirius red (in this instance 0.05% picrosirius red diluted in saturated picric acid) was performed and left for an hour. Sections were then rinsed in water and differentiated in 0.01 M HCl for 2 minutes, followed by dehydration via 3 times absolute alcohol washes. Then, slides were brought through 3 times xylene washes before being cover slipped according to standard histological techniques using DPX as the mounting medium. Images were taken under ×20 magnification, using bright field (Olympus, BX51) and circularized polarized light microscopy (DM IRB, Leica) while percentage of positive interstitial collagen staining per total field of view was quantified using ImageJ 1.46 software (Java, NIH), and averaged out from a total of eight views as the final percentage collagen content in a particular animal.
Immunostaining was performed on either 5 μm thick transverse frozen heart sections or 5 μm thick frozen thoracic aortic. These sections were air dried and fixed in ice-cold acetone for approximately 15 minutes before washing with 0.01M PBS buffer (3×10 minutes). Sections were then incubated with 10% goat serum in 0.01M PBS for 30 minutes to reduce non-specific binding. If the primary antibody is raised in goat, this pre-blocked medium is substituted with 5% BSA in PBS and Triton-X. Next, blocking buffers were removed and the primary antibody to respective markers were applied overnight at room temperature based on the following dilution and origin of the antibodies: IRAP (1:500, in-house), α-SMA (1:500, Abcam), Vimentin (1:500, Santa Cruz), P-IκBα (1:200, Cell Signalling), F4/80 macrophage (1:100, Serotec), MCP-1 (1:100, Santa Cruz), VWF (1:500, abcam). […]

[1] = Ang II + HFI-419, 4 weeks, FIG. 4
[2] = Ang II + HFI-419, 4 weeks, immunofluorescence, FIG. 3

SMILES: CCOC(=O)C1=C(NC(C)=O)Oc2cc(O)ccc2C1c1cccnc1 (stereo not shown) [HFI-419]
- Ang II-induced vascular fibrosis (aortic collagen, picrosirius red) (Ang II 800 ng/kg/min + HFI-419 500 ng/kg/min, 4 weeks, FIG. 3): prevented
- ICAM-1 expression in aorta [1]: reductions
- MCP-1 expression in aorta [1]: reductions
- P-IκBα (marker for NFκB activation) expression in aorta [1]: reductions
- VCAM-1 expression in aorta [1]: reductions
- TGF-β1 expression in aorta [2]: decreased
- α-SMA expression in aorta [2]: decreased
